Key:
[1] = cited from earlier work
[2] = system: protein disulfides in the mouse lenses; test: Decrease in disulfide bonds: protein SH / SS groups in lens homogenates by differential fluorescent alkylation; format: cell-based
Method: FIG. 5 depicts a scattergram of the percent of the total protein SH groups in disulfide bonds. Free SH groups were alkylated with 4-acctamido-4′-maleimidylstilbcne-2,2′-sulfonic acid (c, 1 μM, 5 μM, 9.6 μM, 50 μM, 96 μM) or 7-diethylamino-3-(4′maleimidylphenyl)-4-methyl coumarin (500 μM, and 500 μM c). Following removal of the first alkylating agent, the S—S bonds were reduced and alkylated with fluorescein-5-maleimide. Absorption spectra were used to calculated total protein (A280 nm), free protein SH (A322 or A384), and protein SS (A490) using the appropriate extinction coefficients. The symbol $ indicates statistically significant difference of mean with mean of control (c, p≤0.05).
Mouse lenses were homogenized in a denaturing buffer containing a fluorescent alkylating agent to modify the free SH groups. After removing the alkylating agent homogenates were reduced and alkylated with a different fluorescent alkylating agent. Absorption spectra of the modified proteins were used to calculate free protein SH and protein SS groups.

mouse lenses = test: Increase in elasticity: change in lens diameter (ΔD) under coverslip load in lens organ culture; format: cell-based; settings: lipoic acid at concentrations ≥9.6 μM, 8-15 hours incubation, vs control; p<0.0001
Method: The relative change in Young's modulus (E) can be calculated as the cubic value derived from the ΔD of the control divided by the ΔD of the experimental or E fractional change=(ΔD con/ΔDexp)^3. Pairs of mouse lenses were incubated in medium 200 supplemented with an antibiotic, an antimycotic, in the presence or absence of lipoic acid (concentrations ranging from 0.5 μM to 500 μM) for 8-15 hours. Each lens was removed from medium, weighed, and photographed on a micrometer scale. A coverslip of known weight (0.17899±0.00200 g) was placed on the lens, and the lens was photographed again on the micrometer scale. The diameter of each lens with and without the coverslip was determined from the photographs. The change in lens diameter produced by the force (coverslip) was computed ΔD=(Dwithcoverslip−Dwithoutcoverslip).

| Structure (SMILES) | limit of solubility in aqueous solution [1] | percent of total protein SH groups in disulfide bonds, mean vs 500 μM control ([2]; 500 μM lipoic acid vs 500 μM control, p=0.027) | protein disulfides (percent of total protein SH groups in disulfide bonds) ([2]; lipoic acid at concentrations ≥9.6 μM, vs control, p≤0.05) | change in lens diameter produced by the force (coverslip), ΔD (mouse lenses) |
| --- | --- | --- | --- | --- |
| N[C@@H](CSSC[C@H](N)C(=O)O)C(=O)O [cystine, 3,3′-disulanedylbis(2-aminopropanoic acid)] | 20 µM | – | – | – |
| O=C(O)CCCCC1CCSS1 (stereo not shown) [lipoic acid, 5-(1,2-dithiolan-3-yl)pentanoic acid] | – | significantly different | statistically significant decrease | statistically significant increase |
